Experimental data as given in patent US12030879B2, “Sulfonyl acetamides as NLRP3 inhibitors” (Inflazome Limited, priority 2018, dated 2024).
Where a name gives a salt, the structure may show the parent alone.

Target: T1, NLRP3 (Homo sapiens, UniProt Q96P20)
T1 construct: Seed THP-1 cells (25,000 cells/well) containing 1.0 μg/ml LPS in 40 μl of RPMI medium; host or cells: THP-1 cells
Assay: THP-1 cells pyroptosis assay
Type: cell-based
Details: LPS 1 μg/ml, compound 3 hrs, nigericin 5 μM 1 hr, resazurin readout
In short: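 LPS-primed (1 μg/ml) THP-1 cells in serum-free RPMI were treated 3 h with compound (8-point half-log, top 10 μM; 0.1% DMSO), then with 5 μM nigericin for 1 h at 37°C. Viability was read by 100 μM resazurin (ex 560/em 590 nm) after 1–2 h. IC50 came from 4-parameter nonlinear regression.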

T1 sequence (Q96P20 whole entry): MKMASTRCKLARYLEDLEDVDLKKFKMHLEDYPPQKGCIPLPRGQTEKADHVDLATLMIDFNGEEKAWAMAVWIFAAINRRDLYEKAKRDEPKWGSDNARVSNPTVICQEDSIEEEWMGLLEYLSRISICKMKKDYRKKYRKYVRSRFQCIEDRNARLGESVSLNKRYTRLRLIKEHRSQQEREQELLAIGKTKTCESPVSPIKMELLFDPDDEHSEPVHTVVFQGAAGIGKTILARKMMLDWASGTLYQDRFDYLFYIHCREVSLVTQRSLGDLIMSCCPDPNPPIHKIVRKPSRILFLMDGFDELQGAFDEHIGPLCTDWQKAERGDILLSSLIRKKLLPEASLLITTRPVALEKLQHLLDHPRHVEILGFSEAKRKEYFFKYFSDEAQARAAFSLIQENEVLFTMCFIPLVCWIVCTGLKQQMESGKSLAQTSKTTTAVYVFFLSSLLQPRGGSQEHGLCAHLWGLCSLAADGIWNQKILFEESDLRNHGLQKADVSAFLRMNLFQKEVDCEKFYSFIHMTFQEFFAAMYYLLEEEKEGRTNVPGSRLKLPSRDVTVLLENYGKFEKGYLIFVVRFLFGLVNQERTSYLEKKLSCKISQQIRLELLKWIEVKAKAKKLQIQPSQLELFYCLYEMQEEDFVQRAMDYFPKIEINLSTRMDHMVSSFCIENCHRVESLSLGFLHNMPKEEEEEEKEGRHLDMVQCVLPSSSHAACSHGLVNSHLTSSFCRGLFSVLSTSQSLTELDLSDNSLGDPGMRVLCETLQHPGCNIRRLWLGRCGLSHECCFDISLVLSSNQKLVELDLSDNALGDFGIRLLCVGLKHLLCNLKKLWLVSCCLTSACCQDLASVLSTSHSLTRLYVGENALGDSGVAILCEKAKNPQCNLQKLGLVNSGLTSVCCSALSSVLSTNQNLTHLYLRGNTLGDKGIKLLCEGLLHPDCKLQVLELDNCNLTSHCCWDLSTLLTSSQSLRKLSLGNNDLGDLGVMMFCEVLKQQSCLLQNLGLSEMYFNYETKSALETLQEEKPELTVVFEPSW

| SMILES | IC50 [µM] |
| --- | --- |
| COc1cc(-c2cc(F)cc(C(C)C)c2CC(=O)NS(=O)(=O)c2ccc(Cl)c(F)c2)ccn1 [Example 135] | ≤ 5 |
| COc1cc(-c2cc(F)cc(C(C)C)c2CC(=O)NS(=O)(=O)c2nn(C)/c(=N\C(C)=O)s2)ccn1 [Example 131] | ≤ 5 |
| COc1cc(-c2cc(F)cc(C(C)C)c2CC(=O)NS(=O)(=O)c2nc(C)cc(C)n2)ccn1 [Example 188] | ≤ 10 |
| COc1cc(-c2cc(F)cc(C(C)C)c2CC(=O)NS(=O)(=O)c2ccc(C(C)(C)C#N)cc2)ccn1 [Example 190] | ≤ 5 |
| COc1cc(-c2cc(F)cc(C(C)C)c2CC(=O)NS(=O)(=O)c2c(C)nn(CC(C)C)c2C)ccn1 [Example 172] | ≤ 5 |
| Cc1cc(C(C)(C)O)ccc1S(=O)(=O)NC(=O)Cc1c(-c2ccnc(C#N)c2)ccc2c1CCC2 [Example 189] | ≤ 0.5 |
| COc1cc(-c2cc(F)cc(C(C)C)c2CC(=O)NS(=O)(=O)c2c(C)nn(CC(F)F)c2C)ccn1 [Example 175] | ≤ 5 |
| COc1cc(-c2cc(F)cc(C(C)C)c2CC(=O)NS(=O)(=O)c2cccc(CC#N)c2)ccn1 [Example 32, N-((3-(Cyanomethyl)phenyl)sulfonyl)-2-(4-fluoro-2-isopropyl-6-(2-methoxypyridin-4-yl)phenyl)acetamide] | ≤ 1 |
| COc1cc(-c2cc(F)cc(C(C)C)c2CC(=O)NS(=O)(=O)c2ccc(C(=O)N(C)C)cc2C)ccn1 [Example 15] | ≤ 5 |
| COc1cc(-c2cc(F)cc(C(C)C)c2CC(=O)NS(=O)(=O)c2cc(C(C)(C)O)nn2C)ccn1 [Example 160] | ≤ 5 |
| COc1cc(-c2cc(F)cc(C(C)C)c2CC(=O)NS(=O)(=O)c2ccc(C(C)(C)O)nc2)ccn1 [Example 171] | ≤ 5 |
| COc1cc(-c2cc(F)cc(C(C)C)c2CC(=O)NS(=O)(=O)c2ccc3c(c2)CCC3)ccn1 [Example 123] | ≤ 0.5 |
| COc1cc(-c2cc(F)cc(C(C)C)c2CC(=O)NS(=O)(=O)c2cncc(N(C)C)n2)ccn1 [Example 191] | ≤ 1 |
| COc1cncc(-c2cc(F)cc(C(C)C)c2CC(=O)NS(=O)(=O)c2cc(C(C)(C)O)cs2)c1 [Example 148] | ≤ 5 |
| COc1cc(-c2cc(F)cc(C(C)C)c2CC(=O)NS(=O)(=O)c2cc(Br)c(Cl)cc2C)ccn1 [Example 178] | ≤ 1 |
| COCC(C)(C)n1ccc(S(=O)(=O)NC(=O)Cc2c(-c3ccnc(OC)c3)cc(F)cc2C(C)C)n1 [Example 194] | ≤ 5 |

| SMILES | IC50 [µM] |
| --- | --- |
| CCc1cccc(S(=O)(=O)NC(=O)Cc2c(-c3ccnc(OC)c3)cc(F)cc2C(C)C)c1 [Example 117] | ≤ 0.5 |
| COc1cc(-c2cc(F)cc(C(C)C)c2CC(=O)NS(=O)(=O)c2ccc(C(C)(C)F)cc2C)ccn1 [Example 134] | ≤ 0.5 |
| COc1cc(-c2cc(F)cc(C(C)C)c2CC(=O)NS(=O)(=O)c2cc(Br)c(F)cc2F)ccn1 [Example 166] | ≤ 0.5 |
| COc1cc(-c2cc(F)cc(C(C)C)c2C(F)C(=O)NS(=O)(=O)c2cc(C(C)(C)O)co2)ccn1 (stereo not drawn) [Example 103, 2-Fluoro-2-(4-fluoro-2-isopropyl-6-(2-methoxypyridin-4-yl)phenyl)-N-((4-(2-hydroxypropan-2-yl)furan-2-yl)sulfonyl)acetamide] | ≤ 10 |
| CC(C)c1cc(S(=O)(=O)NC(=O)Cc2c(-c3ccncc3)cc(F)cc2C(C)C)c(F)cc1F [Example 201] | ≤ 0.5 |
| COc1cc(-c2cc(F)cc(C(C)C)c2CC(=O)NS(=O)(=O)c2ccc(C(C)C)cc2C)ccn1 [Example 157] | ≤ 0.5 |
| COc1cc(-c2cc(F)cc(C(C)C)c2CC(=O)NS(=O)(=O)c2cccc(C#N)c2)ccn1 [Example 30, N-((3-Cyanophenyl)sulfonyl)-2-(4-fluoro-2-isopropyl-6-(2-methoxypyridin-4-yl)phenyl)acetamide] | ≤ 5 |
| COc1cc(-c2cc(F)cc(C(C)C)c2CC(=O)NS(=O)(=O)c2cc(C(C)(C)O)cs2)ccn1 [Example 26, 2-(4-Fluoro-2-isopropyl-6-(2-methoxypyridin-4-yl)phenyl)-N-((4-(2-hydroxypropan-2-yl)thiophen-2-yl)sulfonyl)acetamide] | ≤ 0.5 |
| COc1cc(-c2cc(F)cc(C(C)C)c2CC(=O)NS(=O)(=O)c2ccc(C)c(C)c2)ccn1 [Example 122] | ≤ 0.5 |
| COc1cc(-c2cc(F)cc(C(C)C)c2CC(=O)NS(=O)(=O)N(C)C2CCN(C)C2)ccn1 (stereo not drawn) [Example 76, 2-(4-Fluoro-2-isopropyl-6-(2-methoxypyridin-4-yl)phenyl)-N—(N-methyl-N-(1-methylpyrrolidin-3-yl)sulfamoyl)acetamide] | ≤ 5 |
| COc1cc(-c2cc(F)cc(C(C)C)c2CC(=O)NS(=O)(=O)c2ccccc2)ccn1 [Example 111, 2-(4-Fluoro-2-isopropyl-6-(2-methoxypyridin-4-yl)phenyl)-N-(phenylsulfonyl)acetamide] | ≤ 5 |
| C=C(C)c1csc(S(=O)(=O)NC(=O)Cc2c(-c3ccnc(OC)c3)nn(C)c2C(C)C)c1 [Example 163] | ≤ 10 |
| COc1cc(-c2cc(F)cc(C(C)C)c2CC(=O)NS(=O)(=O)c2cc(Br)cs2)ccn1 [Example 183] | ≤ 1 |
| COc1cc(-c2cc(F)cc(C(C)C)c2CC(=O)NS(=O)(=O)c2cccc(CNC(C)=O)c2)ccn1 [Example 133] | ≤ 5 |
| COc1cc(-c2cc(F)cc(C(C)C)c2CC(=O)NS(=O)(=O)c2ccc(C)cc2F)ccn1 [Example 120] | ≤ 1 |
| CCC(C)(O)c1ccc(S(=O)(=O)NC(=O)Cc2c(-c3ccnc(OC)c3)cc(F)cc2C(C)C)cc1F (stereo not drawn) [Example 179] | ≤ 0.5 |

Now from value to molecule:

| IC50 [µM] | SMILES |
| --- | --- |
| ≤ 0.5 | COc1cc(-c2cc(F)cc(C(C)C)c2CC(=O)NS(=O)(=O)c2ccc(C(C)(C)O)cc2C)ccn1 [Example 33, 2-(4-Fluoro-2-isopropyl-6-(2-methoxypyridin-4-yl)phenyl)-N-((4-(2-hydroxypropan-2-yl)-2-methylphenyl)sulfonyl)acetamide] |
| ≤ 5 | COc1cc(-c2cc(F)cc(C(C)C)c2CC(=O)NS(=O)(=O)c2ccn(C(C)(C)CN(C)C)n2)ccn1 [Example 192] |
| ≤ 5 | COc1cc(-c2cc(F)cc(C(C)C)c2CC(=O)NS(=O)(=O)c2ccn(C(C)C)n2)ccn1 [Example 23, 2-(4-Fluoro-2-isopropyl-6-(2-methoxypyridin-4-yl)phenyl)-N-((1-isopropyl-1H-pyrazol-3-yl)sulfonyl)acetamide, potassium salt] |
| ≤ 10 | COc1cc(-c2cc(F)cc(C(C)C)c2CC(=O)NS(=O)(=O)c2cc(C#N)ccc2C)ccn1 [Example 35, N-((5-Cyano-2-methylphenyl)sulfonyl)-2-(4-fluoro-2-isopropyl-6-(2-methoxypyridin-4-yl)phenyl)acetamide] |
| ≤ 5 | COc1cc(-c2cc(F)cc(C(C)C)c2CC(=O)NS(=O)(=O)c2ccc(-c3cnco3)s2)ccn1 [Example 127] |
| ≤ 1 | COc1cc(-c2cc(F)cc(C(C)C)c2CC(=O)NS(=O)(=O)CC2(C#N)CCCCC2)ccn1 [Example 114] |
| ≤ 0.5 | COc1cc(-c2cc(F)cc(C(C)C)c2CC(=O)NS(=O)(=O)c2ccc(Cl)c(C)c2)ccn1 [Example 101, N-((4-Chloro-3-methylphenyl)sulfonyl)-2-(4-fluoro-2-isopropyl-6-(2-methoxypyridin-4-yl)phenyl)acetamide] |
| ≤ 5 | COc1cc(-c2cc(F)cc(C(C)C)c2CC(=O)NS(=O)(=O)c2ccc(/C(C)=N\O)cc2)ccn1 [Example 132] |
| ≤ 5 | CC(C)c1cc(F)cc(-c2ccc(Cl)nc2)c1CC(=O)NS(=O)(=O)c1cc(C(C)(C)O)cs1 [Example 10] |
| ≤ 0.5 | COc1cc(-c2cc(F)cc(C(C)(C)F)c2CC(=O)NS(=O)(=O)c2cc(C(C)(C)O)cs2)ccn1 [Example 87, 2-(4-Fluoro-2-(2-fluoropropan-2-yl)-6-(2-methoxypyridin-4-yl)phenyl)-N-((4-(2-hydroxypropan-2-yl)thiophen-2-yl)sulfonyl)acetamide] |
| ≤ 5 | COc1cc(-c2cc(F)cc(C(C)C)c2CC(=O)NS(=O)(=O)c2ccc(=O)n(C(C)C)c2)ccn1 [Example 2, 2-(4-Fluoro-2-isopropyl-6-(2-methoxypyridin-4-yl)phenyl)-N-((1-isopropyl-6-oxo-,6-dihydropyridin-3-yl)sulfonyl)acetamide, potassium salt] |
| ≤ 5 | COc1cc(-c2cc(F)cc(C(C)C)c2CC(=O)NS(=O)(=O)c2ccc(C)cc2)ccn1 [Example 112, 2-(4-Fluoro-2-isopropyl-6-(2-methoxypyridin-4-yl)phenyl)-N-tosylacetamide] |
| ≤ 5 | Cc1nc(C(C)C)c(CC(=O)NS(=O)(=O)c2cc(C(C)C)c(F)cc2F)n1-c1ccncc1 [Example 202] |
| ≤ 0.5 | COc1cc(-c2cc(F)cc(C(C)C)c2CC(=O)NS(=O)(=O)c2cc(C(=O)N(C)C)c(C)s2)ccn1 [Example 174] |
| ≤ 0.5 | COc1cc(-c2cc(F)cc(C(C)C)c2CC(=O)NS(=O)(=O)c2ccc(C(C)(C)O)c(Cl)c2)ccn1 [Example 98, N-((3-Chloro-4-(2-hydroxypropan-2-yl)phenyl)sulfonyl)-2-(4-fluoro-2-isopropyl-6-(2-methoxypyridin-4-yl)phenyl)acetamide] |
| ≤ 0.5 | CC(C)c1cc(F)cc(-c2cccnc2)c1CC(=O)NS(=O)(=O)c1cc(C(C)(C)O)cs1 [Example 25, 2-(4-Fluoro-2-isopropyl-6-(pyridin-3-yl)phenyl)-N-((4-(2-hydroxypropan-2-yl)thiophen-2-yl)sulfonyl)acetamide] |
